According to ChEMBL document CHEMBL5725430, “Dihydro-benzo-oxazine and dihydro-pyrido-oxazine derivatives” (2017):
Values joined by “and” are separate entries in the source; they are usually repeats but may differ in a detail not shown here. Equal entries are not always repeated.

Key:
[1] = target: T1, Phosphatidylinositol 4,5-bisphosphate 3-kinase catalytic subunit delta isoform (Homo sapiens, UniProt O00329); assay: (§1) The final concentrations of ATP and phosphatidyl inositol in the assay are 5 μM and 6 μg/mL, respectively. The reaction is started by the addition of PI3 kinase, e.g. PI3 kinase 6.p110δ.The components of the assay are added per well as follows 10 μl test compound in 5% DMSO per well in columns 2-1. Total activity is determined by addition 10 μl of 5% vol/vol DMSO in the first 4 wells of column 1 and the last 4 wells of column 12. The background is determined by addition of 10 μM control compound to the last 4 wells of column 1 and the first 4 wells of column 12. 2 mL Assay mix are prepared per plate 1.912 mL of HEPES assay buffer 8.33 μl of 3 mM stock of ATP giving a final concentration of 5 μM per well 1 μl of [33P]ATP on the activity date giving 0.05 μCi per well 30 μl of 1 mg/mL PI stock giving a final concentration of 6 μg/mL per well 5 μl of 1 M stock MgCl2 giving a final concentration of 1 mM per well 20 μl of the assay mix are added per well. 2 mL Enzyme mix are prepared per plate (x* μl PI3 kinase p110(3 in 2 mL of kinase buffer). The Enzyme mix is kept on ice during addition to the assay plates. 20 μl ‘Enzyme mix’ are added/well to start the reaction. The plate is then incubated at room temperature for 90 minutes. The reaction is terminated by the addition of 50 μl WGA-SPA bead (wheat germ agglutinin-coated Scintillation Proximity Assay beads) suspension per well. The assay plate is sealed using TopSeal-S (heat seal for polystyrene microplates, PerkinElmer LAS [Deutschland] GmbH, Rodgau, Germany) and incubated at room temperature for at least 60 minutes. The assay plate is then centrifuged at 1500 rpm for 2 minutes using the Jouan bench top centrifuge (Jouan Inc., Nantes, France). The assay plate is counted using a Packard TopCount, each well being counted for 20 seconds. The volume of enzyme is dependent on the enzymatic activity of the batch in use.In a more preferred assay, the kinase reaction is performed in a final volume of 10 μl per well of a low volume non-binding CORNING, 384 well black plate (Cat. No. #3676). The final concentrations of ATP and phosphatidyl inositol (PI) in the assay are 1 μM and 10 μg/mL, respectively. The reaction is started by the addition of ATP.The components of the assay are added per well as follows:50 nl test compounds in 90% DMSO per well, in columns 1-20, 8 concentrations (⅓ and 1/3.33 serial dilution step) in single. Low control: 50 nl of 90% DMSO in half the wells of columns 23-24 (0.45% in final). High control: 50 nl of reference compound (e.g. compound of Example 7 in WO 2006/122806) in the other half of columns 23-24 (2.5 μM in final). Standard: 50 nl of reference compound as just mentioned diluted as the test compounds in columns 21-22. 20 mL buffer are prepared per assay 200 μl of 1M TRIS HCl pH7.5 (10 mM in final) 60 μl of 1M MgCl2 (3 mM in final) 500 μl of 2M NaCl (50 mM in final) 100 μl of 10% CHAPS (0.05% in final) 200 μl of 100 mM DTT (1 mM in final) 18.94 mL of nanopure water 10 mL PI are prepared per assay 200 μl of 1 mg/mL 1-alpha-Phosphatidylinositol (Liver Bovine, Avanti Polar Lipids Cat. No. 840042C MW=909.12) prepared in 3% OctylGlucoside (10 μg/mL in final) 9.8 mL of buffer 10 mL ATP are prepared per assay.
T1 sequence (O00329 whole entry): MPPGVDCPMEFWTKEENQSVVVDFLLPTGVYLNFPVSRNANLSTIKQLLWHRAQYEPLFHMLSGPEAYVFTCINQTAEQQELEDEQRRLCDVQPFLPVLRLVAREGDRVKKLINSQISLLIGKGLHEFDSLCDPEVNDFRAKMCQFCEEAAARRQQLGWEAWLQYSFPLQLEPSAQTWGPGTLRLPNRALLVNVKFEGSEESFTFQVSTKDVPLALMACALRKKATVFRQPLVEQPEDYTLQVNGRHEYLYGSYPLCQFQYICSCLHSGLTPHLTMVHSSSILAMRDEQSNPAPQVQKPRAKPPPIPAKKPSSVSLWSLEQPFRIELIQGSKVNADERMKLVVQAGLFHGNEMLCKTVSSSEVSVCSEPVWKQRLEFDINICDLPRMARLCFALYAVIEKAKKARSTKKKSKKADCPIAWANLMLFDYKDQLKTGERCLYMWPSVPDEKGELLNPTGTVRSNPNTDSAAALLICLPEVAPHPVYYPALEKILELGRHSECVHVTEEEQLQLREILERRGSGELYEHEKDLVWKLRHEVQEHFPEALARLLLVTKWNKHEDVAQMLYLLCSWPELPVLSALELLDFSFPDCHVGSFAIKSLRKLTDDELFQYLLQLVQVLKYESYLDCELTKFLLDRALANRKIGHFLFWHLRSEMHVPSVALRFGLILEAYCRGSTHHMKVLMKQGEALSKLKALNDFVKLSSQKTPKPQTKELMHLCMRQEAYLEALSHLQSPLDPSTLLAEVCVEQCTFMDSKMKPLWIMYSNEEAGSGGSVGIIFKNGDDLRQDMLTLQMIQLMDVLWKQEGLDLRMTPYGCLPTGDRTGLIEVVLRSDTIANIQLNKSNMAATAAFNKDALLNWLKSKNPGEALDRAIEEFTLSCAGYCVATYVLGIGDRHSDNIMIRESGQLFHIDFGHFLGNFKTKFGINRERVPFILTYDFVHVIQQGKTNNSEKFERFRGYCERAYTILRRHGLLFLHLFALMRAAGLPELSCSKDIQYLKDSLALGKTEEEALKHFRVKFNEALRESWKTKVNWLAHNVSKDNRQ

[2] = target: Phosphatidylinositol 4,5-bisphosphate 3-kinase catalytic subunit alpha isoform (Homo sapiens, UniProt P42336); assay: as §1
Chain of Phosphatidylinositol 4,5-bisphosphate 3-kinase catalytic subunit alpha isoform (P42336 whole entry, canonical isoform): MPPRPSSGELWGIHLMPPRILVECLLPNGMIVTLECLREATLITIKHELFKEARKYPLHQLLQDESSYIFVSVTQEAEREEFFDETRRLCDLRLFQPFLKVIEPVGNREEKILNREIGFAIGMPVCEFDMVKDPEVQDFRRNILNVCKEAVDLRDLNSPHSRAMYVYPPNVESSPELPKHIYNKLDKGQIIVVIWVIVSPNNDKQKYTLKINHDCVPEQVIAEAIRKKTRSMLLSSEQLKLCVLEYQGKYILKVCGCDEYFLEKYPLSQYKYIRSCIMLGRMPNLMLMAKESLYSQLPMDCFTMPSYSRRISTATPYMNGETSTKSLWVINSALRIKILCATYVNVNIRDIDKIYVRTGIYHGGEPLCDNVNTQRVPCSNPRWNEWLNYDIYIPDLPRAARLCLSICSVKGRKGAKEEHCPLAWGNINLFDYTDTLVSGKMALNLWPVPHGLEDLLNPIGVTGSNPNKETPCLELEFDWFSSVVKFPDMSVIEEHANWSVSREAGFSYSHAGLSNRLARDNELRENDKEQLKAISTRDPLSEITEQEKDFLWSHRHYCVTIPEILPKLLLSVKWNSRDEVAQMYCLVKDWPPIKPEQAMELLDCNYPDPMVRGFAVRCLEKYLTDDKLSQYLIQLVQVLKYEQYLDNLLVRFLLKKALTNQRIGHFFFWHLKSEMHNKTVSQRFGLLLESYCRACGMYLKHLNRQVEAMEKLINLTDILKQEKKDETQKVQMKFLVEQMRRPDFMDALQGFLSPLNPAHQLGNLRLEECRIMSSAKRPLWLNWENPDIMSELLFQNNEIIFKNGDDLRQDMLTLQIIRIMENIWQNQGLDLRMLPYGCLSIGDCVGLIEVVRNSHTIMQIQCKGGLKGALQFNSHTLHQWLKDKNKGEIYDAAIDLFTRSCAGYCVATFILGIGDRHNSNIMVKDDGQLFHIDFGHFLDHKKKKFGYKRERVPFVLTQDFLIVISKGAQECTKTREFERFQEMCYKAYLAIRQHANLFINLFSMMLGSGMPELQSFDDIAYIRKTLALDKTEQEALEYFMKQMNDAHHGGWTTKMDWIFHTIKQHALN

| IC50 [1] | IC50 [2] | Structure (SMILES) |
| --- | --- | --- |
| 11 nM | 463 nM | COc1ncc(N2CCOc3ccc(O[C@H]4CCN(C(=O)C(C)C)C4)cc32)cc1C#N |
| 10.2 nM | 209 nM | COc1ncc(N2CCOc3ccc(O[C@H]4CCN(C(=O)c5cn(C)cn5)C4)cc32)cc1F |
| 32 nM | 193 nM | Cc1cc(N2CCOc3ccc(O[C@H]4CCN(C(=O)c5cn(C)cn5)C4)cc32)cnc1Cl |
| 41 nM | 496 nM | COc1cc(N2CCOc3ccc(O[C@H]4CCN(C(=O)c5cn(C)cn5)C4)cc32)cnc1Cl |
| 35 nM | 795 nM | Cc1cc(N2CCOc3ccc(O[C@H]4CCN(C(=O)c5ccc(=O)[nH]c5)C4)cc32)cnc1Cl |

The remaining lines, values behind:

| Structure (SMILES) | IC50 [1] | IC50 [2] |
| --- | --- | --- |
| Cc1cc(N2CCOc3cnc(O[C@H]4CCN(C(=O)C5CCS(=O)(=O)CC5)C4)cc32)cnc1OC(F)F | 10 nM | 870 nM |
| Cc1ccc(N2CCOc3ccc(O[C@H]4CCN(C(=O)C5CCOCC5)C4)cc32)cn1 | 37 nM | 4660 nM |
| CC(C)S(=O)(=O)c1cncc(N2CCOc3ccc(O[C@H]4CCN(C(=O)C5CCOCC5)C4)cc32)c1 | 110 nM | 2240 nM |
| COc1cc(N2CCOc3ccc(O[C@H]4CCN(C(=O)C5CCC(F)(F)CC5)C4)cc32)cnc1S(C)(=O)=O | 35 nM | 870 nM |
| O=C(C1CCOCC1)N1CC[C@H](Oc2ccc3c(c2)N(c2cncc(S(=O)(=O)N4CCOCC4)c2)CCO3)C1 | 3 nM | 313 nM |
| O=C(C1CCOCC1)N1CC[C@H](Oc2ccc3c(c2)N(c2cncc(C(F)(F)F)c2)CCO3)C1 | 9 nM | 377 nM |
| COc1cc(N2CCOc3ccc(O[C@H]4CCN(C(=O)C5CCCO5)C4)cc32)cnc1OC (single isomer, unassigned) | 5 nM and 7 nM | 703 nM and 521 nM |
